Laboratory results published in the NIST ThermoML archive (doi:10.1016/j.jct.2006.01.012).
± gives the expanded uncertainty stated by the source.

Assay: xn = mol fraction of the nth substance listed
Conditions: Liquid; for mass density: isochoric method; for viscosity: Capillary tube (Ostwald / Ubbelohde) method

CCCCCCCC [octane] + CCCCCCC
Conditions	mass density [kg/m3]	viscosity [mPa·s]
293.15 K, 100 kPa, x2 = 0.2808	697.8 ± 0.9	–
293.15 K, 100 kPa, x2 = 0.5427	693.2 ± 0.8	–
293.15 K, 100 kPa, x2 = 0.7906	688.3 ± 0.8	–
298.15 K, 100 kPa, x2 = 0.2808	694 ± 0.8	–
298.15 K, 100 kPa, x2 = 0.5427	689.2 ± 0.8	0.436 ± 0.014
298.15 K, 100 kPa, x2 = 0.7906	684.2 ± 0.8	–
298.15 K, 5000 kPa, x2 = 0.5427	–	0.461 ± 0.015
298.15 K, 10000 kPa, x2 = 0.5427	–	0.487 ± 0.016
298.22 K, 100 kPa, x2 = 0.7906	–	0.408 ± 0.013
298.22 K, 5000 kPa, x2 = 0.7906	–	0.435 ± 0.014
298.22 K, 10000 kPa, x2 = 0.7906	–	0.459 ± 0.015
298.39 K, 100 kPa, x2 = 0.2808	–	0.467 ± 0.015
298.39 K, 5000 kPa, x2 = 0.2808	–	0.493 ± 0.016
298.39 K, 10000 kPa, x2 = 0.2808	–	0.521 ± 0.017
299.24 K, 3824 kPa, x2 = 0.5427	691.8 ± 0.8	–
299.24 K, 6865 kPa, x2 = 0.5427	694.6 ± 0.8	–
299.24 K, 9316 kPa, x2 = 0.5427	696.4 ± 0.9	–
303.15 K, 100 kPa, x2 = 0.2808	689.9 ± 0.8	–
303.15 K, 100 kPa, x2 = 0.5427	685 ± 0.8	–
303.15 K, 100 kPa, x2 = 0.7906	680.1 ± 0.8	–
303.39 K, 100 kPa, x2 = 0.5427	–	0.414 ± 0.014
303.39 K, 5000 kPa, x2 = 0.5427	–	0.435 ± 0.014
303.39 K, 10000 kPa, x2 = 0.5427	–	0.459 ± 0.015
303.85 K, 100 kPa, x2 = 0.2808	–	0.441 ± 0.014
303.85 K, 5000 kPa, x2 = 0.2808	–	0.465 ± 0.015
303.85 K, 10000 kPa, x2 = 0.2808	–	0.492 ± 0.016
305.74 K, 100 kPa, x2 = 0.7906	–	0.379 ± 0.012
305.74 K, 5000 kPa, x2 = 0.7906	–	0.402 ± 0.013
305.74 K, 10000 kPa, x2 = 0.7906	–	0.425 ± 0.014
306.18 K, 2942 kPa, x2 = 0.2808	690.3 ± 0.8	–
306.18 K, 7021 kPa, x2 = 0.2808	693.8 ± 0.8	–
306.18 K, 8826 kPa, x2 = 0.2808	695.3 ± 0.8	–
307.62 K, 2608 kPa, x2 = 0.7906	678.6 ± 0.8	–
307.62 K, 7178 kPa, x2 = 0.7906	683 ± 0.8	–
307.62 K, 9140 kPa, x2 = 0.7906	684.6 ± 0.8	–
308.15 K, 100 kPa, x2 = 0.2808	686.1 ± 0.8	–
308.15 K, 100 kPa, x2 = 0.5427	680.9 ± 0.8	–
308.15 K, 100 kPa, x2 = 0.7906	675.9 ± 0.8	–
312.71 K, 100 kPa, x2 = 0.2808	–	0.4 ± 0.013
312.71 K, 5000 kPa, x2 = 0.2808	–	0.424 ± 0.014
312.71 K, 10000 kPa, x2 = 0.2808	–	0.446 ± 0.015
312.74 K, 100 kPa, x2 = 0.5427	–	0.374 ± 0.012
312.74 K, 5000 kPa, x2 = 0.5427	–	0.396 ± 0.013
312.74 K, 10000 kPa, x2 = 0.5427	–	0.419 ± 0.014
312.75 K, 100 kPa, x2 = 0.7906	–	0.352 ± 0.012
312.75 K, 5000 kPa, x2 = 0.7906	–	0.373 ± 0.012
312.75 K, 10000 kPa, x2 = 0.7906	–	0.395 ± 0.013
313.15 K, 100 kPa, x2 = 0.2808	681.6 ± 0.8	–
313.15 K, 100 kPa, x2 = 0.5427	676.6 ± 0.8	–
313.15 K, 100 kPa, x2 = 0.7906	671.6 ± 0.8	–
318.15 K, 100 kPa, x2 = 0.2808	677.4 ± 0.8	–
318.15 K, 100 kPa, x2 = 0.5427	672.7 ± 0.8	–
318.15 K, 100 kPa, x2 = 0.7906	667.3 ± 0.8	–
321.21 K, 100 kPa, x2 = 0.5427	–	0.338 ± 0.011
321.21 K, 5000 kPa, x2 = 0.5427	–	0.359 ± 0.012
321.21 K, 10000 kPa, x2 = 0.5427	–	0.38 ± 0.012
321.71 K, 100 kPa, x2 = 0.2808	–	0.362 ± 0.012
321.71 K, 5000 kPa, x2 = 0.2808	–	0.384 ± 0.013
321.71 K, 10000 kPa, x2 = 0.2808	–	0.405 ± 0.013
323.15 K, 100 kPa, x2 = 0.2808	673.2 ± 0.8	–
323.15 K, 100 kPa, x2 = 0.5427	668.5 ± 0.8	–
323.15 K, 100 kPa, x2 = 0.7906	663 ± 0.8	–
323.82 K, 100 kPa, x2 = 0.7906	–	0.314 ± 0.01
323.82 K, 5000 kPa, x2 = 0.7906	–	0.334 ± 0.011
323.82 K, 10000 kPa, x2 = 0.7906	–	0.353 ± 0.012
331.45 K, 4121 kPa, x2 = 0.7906	658.7 ± 0.8	–
331.45 K, 6311 kPa, x2 = 0.7906	662.6 ± 0.8	–
331.45 K, 8523 kPa, x2 = 0.7906	665.5 ± 0.8	–
331.45 K, 10350 kPa, x2 = 0.7906	667.1 ± 0.8	–
331.55 K, 4119 kPa, x2 = 0.5427	665 ± 0.8	–
331.55 K, 5944 kPa, x2 = 0.5427	668.1 ± 0.8	–
331.55 K, 8203 kPa, x2 = 0.5427	670.9 ± 0.8	–
331.55 K, 10100 kPa, x2 = 0.5427	672.6 ± 0.8	–
333.15 K, 100 kPa, x2 = 0.2808	664.9 ± 0.8	–
333.15 K, 100 kPa, x2 = 0.5427	659.9 ± 0.8	–
333.15 K, 100 kPa, x2 = 0.7906	654.4 ± 0.8	–
333.54 K, 100 kPa, x2 = 0.2808	–	0.322 ± 0.011
333.54 K, 5000 kPa, x2 = 0.2808	–	0.341 ± 0.011
333.54 K, 10000 kPa, x2 = 0.2808	–	0.36 ± 0.012
333.73 K, 100 kPa, x2 = 0.5427	–	0.3 ± 0.01
333.73 K, 5000 kPa, x2 = 0.5427	–	0.319 ± 0.01
333.73 K, 10000 kPa, x2 = 0.5427	–	0.338 ± 0.011
335.62 K, 100 kPa, x2 = 0.7906	–	0.281 ± 0.009
335.62 K, 5000 kPa, x2 = 0.7906	–	0.298 ± 0.01
335.62 K, 10000 kPa, x2 = 0.7906	–	0.316 ± 0.01
338.15 K, 100 kPa, x2 = 0.2808	661 ± 0.8	–
338.15 K, 100 kPa, x2 = 0.5427	655.6 ± 0.8	–
338.15 K, 100 kPa, x2 = 0.7906	650.1 ± 0.8	–
343.15 K, 100 kPa, x2 = 0.2808	656.8 ± 0.8	–
343.15 K, 100 kPa, x2 = 0.5427	651.2 ± 0.8	–
343.15 K, 100 kPa, x2 = 0.7906	645.6 ± 0.8	–
344.21 K, 100 kPa, x2 = 0.7906	–	0.26 ± 0.009
344.21 K, 5000 kPa, x2 = 0.7906	–	0.276 ± 0.009
344.21 K, 10000 kPa, x2 = 0.7906	–	0.292 ± 0.01
344.39 K, 100 kPa, x2 = 0.2808	–	0.291 ± 0.01
344.39 K, 5000 kPa, x2 = 0.2808	–	0.308 ± 0.01
344.39 K, 10000 kPa, x2 = 0.2808	–	0.325 ± 0.011
344.4 K, 100 kPa, x2 = 0.5427	–	0.273 ± 0.009
344.4 K, 5000 kPa, x2 = 0.5427	–	0.29 ± 0.01
344.4 K, 10000 kPa, x2 = 0.5427	–	0.307 ± 0.01
352.61 K, 2844 kPa, x2 = 0.5427	648 ± 0.8	–
352.61 K, 8237 kPa, x2 = 0.5427	654.9 ± 0.8	–
352.61 K, 10040 kPa, x2 = 0.5427	657 ± 0.8	–
352.62 K, 100 kPa, x2 = 0.5427	–	0.255 ± 0.008
352.62 K, 5000 kPa, x2 = 0.5427	–	0.27 ± 0.009
352.62 K, 10000 kPa, x2 = 0.5427	–	0.286 ± 0.009
353.2 K, 100 kPa, x2 = 0.7906	–	0.239 ± 0.008
353.2 K, 5000 kPa, x2 = 0.7906	–	0.255 ± 0.008
353.2 K, 10000 kPa, x2 = 0.7906	–	0.27 ± 0.009
354.08 K, 100 kPa, x2 = 0.2808	–	0.267 ± 0.009
354.08 K, 5000 kPa, x2 = 0.2808	–	0.283 ± 0.009
354.08 K, 10000 kPa, x2 = 0.2808	–	0.299 ± 0.01
357.15 K, 100 kPa, x2 = 0.2808	644.3 ± 0.8	–
357.15 K, 100 kPa, x2 = 0.5427	638.8 ± 0.8	–
357.15 K, 100 kPa, x2 = 0.7906	633 ± 0.8	–
362.65 K, 4800 kPa, x2 = 0.2808	646.1 ± 0.8	–
362.65 K, 6720 kPa, x2 = 0.2808	649 ± 0.8	–
362.65 K, 9300 kPa, x2 = 0.2808	652.5 ± 0.8	–
363.71 K, 100 kPa, x2 = 0.2808	–	0.245 ± 0.008
363.71 K, 5000 kPa, x2 = 0.2808	–	0.261 ± 0.009
363.71 K, 10000 kPa, x2 = 0.2808	–	0.276 ± 0.009
363.74 K, 100 kPa, x2 = 0.5427	–	0.232 ± 0.008
363.74 K, 5000 kPa, x2 = 0.5427	–	0.247 ± 0.008
363.74 K, 10000 kPa, x2 = 0.5427	–	0.26 ± 0.009
364.62 K, 100 kPa, x2 = 0.7906	–	0.216 ± 0.007
364.62 K, 5000 kPa, x2 = 0.7906	–	0.232 ± 0.008
364.62 K, 10000 kPa, x2 = 0.7906	–	0.246 ± 0.008
365.46 K, 3432 kPa, x2 = 0.7906	631.8 ± 0.8	–
365.46 K, 8983 kPa, x2 = 0.7906	639.4 ± 0.8	–
365.46 K, 9963 kPa, x2 = 0.7906	640.9 ± 0.8	–
